These are literature values, as cited in patent publication US8187629B2, “Non-lamellar compositions of DOPE and P80” (Camurus AB, priority 2004, dated 2012).

The structures appear in SMILES notation.

The conditions of this data set: room temperature; greater at physiological temperature.

As for `CCCCCCCC/C=C\CCCCCCCC(=O)OCC(O)CO` (stereo not shown) [GMO, glycerol monooleate], the equilibrium water solubility result was “at least 10^−7 M”.
